# Laboratory results published in article PMC9964404, “Molecular Modeling and In Vitro Evaluation of Piplartine Analogs against Oral Squamous Cell Carcinoma” (Molecules, 2023).
# Like-named read-outs stand apart in the source and are kept apart here.
# Experiments:
# SCC9 cells = experiment: MTT cell viability (cytotoxicity) assay, SCC9; assay type: cell-based, human
# Experimental: (§1) SCC cells (SCC9 and SCC4), derived from human tongue OSCC, were obtained by (ATCC® CRL-1629 and CRL-1624) and maintained in DMEM/F12 1:1 medium (Dulbecco’s modified Eagle’s medium and Ham’s F12 medium, Gibco (Thermo Fisher, Waltham, MA, USA), supplemented with 10% (v/v) FBS (Fetal Bovine Serum; Invitrogen, Thermo Fisher, Waltham, MA, USA) and 400 ng/mL hydrocortisone (Sigma-AldrichCo., St. Louis, MO, USA). Primary normal gingival fibroblast human (PCS201 018TM) and other tumor cells B16-F10 (CRL-6475), Hep G2 (HB-8065), and HT-29 (HTB-38) were also obtained at ATCC and maintained in DMEM supplemented with 10% (v/v) FCS. Cells were cultured in a humidified environment containing 5% CO2 at 37 °C. For all experiments, the compounds were solubilized in DMSO (Sigma-Aldrich) for a final concentration of 100 mM. From this dilution, other concentrations were made to carry out the cell viability assay. Carboplatin (Fauldcarbo®; Libbs Farmacêutica, São Paulo, SP, Brazil) was used as a control antitumor compound.
# (§2) The viability of cancer cells and primary fibroblasts was tested using the MTT assay as described in MACHADO et al., 2021 [49]. Briefly, cancer cells (5 × 10^3 cells/well) were plated in duplicate in a 96-well plate, as indicated. DMSO was diluted in culture medium at the same concentrations and was used as a negative control, representing 100% cell viability. After 48 h of treatment, cells were incubated for 3.5 h with 5 mg/mL of MTT reagent (3,4,5-dimethiazol-2,5-diphenyltetrazoliumbromide) (Sigma-Aldrich Co., St. Louis, MO, USA) diluted in culture medium. Subsequently, the formazan crystals were dissolved by MTT solvent (50% Methanol and 50% DMSO), and the absorbance was read at 560 nm using the EPOCH microplate spectrophotometer (BioTekInstruments, Winooski, VT, USA).
# (§3) IC50 values for the MTT assay were obtained by non-linear regression using GraphPad Prism 5.0 software (GraphPad, San Diego, CA, USA) from at least three independent experiments. Data are presented as means, ± standard deviation (SD). A log dose response (inhibitor) vs. response curve using the least square method was used to determine the IC50 and SD of the data. The selectivity index was calculated as: S.I. = IC50 of the compound in fibroblasts/IC50 of the same compound in tumor cells.
# [1] = test system: Primary Gingival Fibroblast; experiment: MTT cell viability assay, normal fibroblasts; assay type: cell-based, human; settings: 48 h treatment
# Experimental: as §1, §2, §3
# SCC4 cells = experiment: MTT cell viability assay, SCC4; assay type: cell-based, human
# Experimental: as §1, §2, §3
# [2] = test system: Oral Tumor Cells (SCC9, SCC4); experiment: MTT cell viability assay, average of OSCC lines SCC9 and SCC4; assay type: cell-based, human
# Experimental: as §1, §2
# IC50 values for the MTT assay were obtained by non-linear regression using GraphPad Prism 5.0 software (GraphPad, San Diego, CA, USA) from at least three independent experiments. […] The selectivity index was calculated as: S.I. = IC50 of the compound in fibroblasts/IC50 of the same compound in tumor cells.
# mouse erythrocytes = test system: mouse erythrocytes; parameters: method as in PMID 16163826; settings: cited from earlier work
# [3] = Homo sapiens, SCC-9, 48 h treatment, MTT, read-out: SCC9 IC50
# [4] = Homo sapiens, SCC-9, 48 h treatment, MTT, read-out: SCC9 IC50 (µg/mL)
# [5] = Homo sapiens, SCC-9, 48 h treatment, MTT, N.D. = not determined, not toxic to SCC cells, read-out: SCC9 IC50 (class N.D.)
# [6] = Homo sapiens, Fibroblast, read-out: Primary Gingival Fibroblast IC50
# [7] = Homo sapiens, Fibroblast, read-out: Primary Gingival Fibroblast IC50 (µg/mL)
# [8] = Homo sapiens, SCC-4, 48 h treatment, calculated as in Table 1, no cytotoxic effect in SCC4, read-out: SCC4 IC50 (class N.D.)
Structure (SMILES),melting point [°C],IC50 (SCC9 cells; [3]) [µM],IC50 (SCC9 cells; [4]) [µg/mL],IC50 (SCC9 cells; [5]) [µM],"IC50 [1, 6] [µM]","IC50 [1, 7] [µg/mL]",other results
"COc1cc(C(=O)O)cc(OC)c1OC [3,4,5-Trimethoxybenzoic acid]",–,–,–,–,–,–,"cytotoxic activity against SCC9 cells (in words) (SCC9 cells): inactive; IC50 (SCC9 cells; Homo sapiens, SCC-9, 48 h, read-out: SCC9 IC50 (class N.D.)): > 1000 µM"
"N.N.O=C([O-])C1(C(=O)[O-])CCC1.[Pt+2] [Carboplatin, reference compound]",–,–,–,–,–,–,"SCC9 IC50 (SCC9 cells; 48 h treatment, MTT): 77.37 µg/mL; IC50 (SCC9 cells; 48 h treatment, MTT, read-out: SCC9 IC50): 208 µM; Primary Gingival Fibroblast IC50 [1]: 190.19 µg/mL; IC50 ([1]; read-out: Primary Gingival Fibroblast IC50): 512 µM; IC50 (SCC4 cells; 48 h treatment, read-out: SCC4 IC50): 175 µM; IC50 [2]: 192 µM"
"COC(=O)c1cc(OC)c(OC)c(OC)c1 [Compound 1, Methyl 3,4,5–trimethoxybenzoate]",–,858,194,–,–,–,–
"CCOC(=O)c1cc(OC)c(OC)c(OC)c1 [Compound 2, Ethyl 3,4,5–trimethoxybenzoate]",53 to 54,–,–,> 1000,–,–,cytotoxic activity against SCC9 cells (in words) (SCC9 cells): no cytotoxic activity
"CCCOC(=O)c1cc(OC)c(OC)c(OC)c1 [Compound 3, Propyl 3,4,5–trimethoxybenzoate]",34 to 35,299,76,–,1260,319,IC50 (SCC4 cells; [8]): > 1000 µM
"COc1cc(C(=O)OC(C)C)cc(OC)c1OC [Compound 4, Isopropyl 3,4,5–trimethoxybenzoate]",–,373,94.9,–,1800,456,"IC50 (SCC4 cells; Homo sapiens, SCC-4, 48 h treatment, read-out: SCC4 IC50): 454 µM; IC50 ([2]; Homo sapiens): 376 µM"
"CCCCOC(=O)c1cc(OC)c(OC)c(OC)c1 [Compound 5, Butyl 3,4,5–trimethoxybenzoate]",–,204,54.8,–,510,137,–
"COc1cc(C(=O)OCCC(C)C)cc(OC)c1OC [Compound 6, Isopentyl 3,4,5–trimethoxybenzoate]",–,160,45.2,–,570,161,–
"CCCCCOC(=O)c1cc(OC)c(OC)c(OC)c1 [Compound 7, Pentyl 3,4,5–trimethoxybenzoate]",–,258,72.7,–,418,118,–
"CCCCCCCCCCOC(=O)c1cc(OC)c(OC)c(OC)c1 [Compound 8, Decyl 3,4,5–trimethoxybenzoate]",49 to 50,955,337,–,–,–,–
"COc1cc(C(=O)OCc2ccc(Br)cc2)cc(OC)c1OC [Compound 10, 4-Bromo-benzyl 3,4,5–trimethoxybenzoate]",104 to 105,–,–,> 1000,–,–,cytotoxic activity against SCC9 cells (in words) (SCC9 cells): no cytotoxic activity
"COc1cc(C(=O)OCc2ccc3ccccc3c2)cc(OC)c1OC [Compound 11, 2-Methylnaphthalene 3,4,5–trimethoxybenzoate]",84 to 85,310,109,–,3410,1200,–
"COc1cc(C(=O)OC(c2ccccc2)c2ccccc2)cc(OC)c1OC [Compound 12, Diphenyl 3,4,5–trimethoxybenzoate]",57 to 58,830,314,–,–,–,–
COc1cc(/C=C/C(=O)N2CCC=CC2=O)cc(OC)c1OC [piplartine],–,–,–,–,–,–,hemolytic activity (mouse erythrocytes): did not reveal hemolytic activity

# The next lines start with results.
melting point [°C],Structure (SMILES),IC50 (SCC9 cells; [3]) [µM],IC50 (SCC9 cells; [4]) [µg/mL],IC50 (SCC9 cells; [5]) [µM],"IC50 [1, 6] [µM]","IC50 [1, 7] [µg/mL]",other results
115 to 116,"CCCCNC(=O)c1cc(OC)c(OC)c(OC)c1 [Compound 13, N-Butyl-3,4,5–trimethoxybenzamide]",469,125,–,2360,631,IC50 (SCC4 cells; [8]): > 1000 µM
118 to 119,"COc1cc(C(=O)NCC(C)C)cc(OC)c1OC [Compound 14, N-Isobutyl-3,4,5–trimethoxybenzamide]",–,–,> 1000,–,–,–
179 to 180,"COc1cc(C(=O)NC2CCCCC2)cc(OC)c1OC [Compound 15, N-Cyclohexyl-3,4,5–trimethoxybenzamide]",–,–,> 1000,–,–,–
227 to 229,"COc1cc(C(=O)NCc2ccc(O)cc2)cc(OC)c1OC [Compound 16, N-4-Hydroxybenzyl-3,4,5–trimethoxybenzamide]",–,–,> 1000,–,–,–
138 to 139,"COc1cc(C(=O)NCc2ccccc2)cc(OC)c1OC [Compound 17, N-Benzyl-3,4,5–trimethoxybenzamide]",–,–,> 1000,–,–,–
131 to 132,"COc1cc(C(=O)NCc2ccc(F)cc2)cc(OC)c1OC [Compound 18, N-(4-Fluorobenzyl)-3,4,5–trimethoxybenzamide]",–,–,> 1000,–,–,cytotoxic activity against SCC9 cells (in words) (SCC9 cells): inactive
157 to 158,"COc1cc(C(=O)NCc2ccc(Cl)cc2)cc(OC)c1OC [Compound 19, N-4-Chlorobenzyl-3,4,5–trimethoxybenzamide]",–,–,> 1000,–,–,–
